# Tests used:
# [1] = biological target: KRAS Q61H (Homo sapiens (Human), UniProt P01116+P62937, Q61H); assay: Ras-Raf (BRAF RBD) disruption / FRET / MOA assay, KRAS Q61H; type: biochemical; conditions: Ras-Raf disruption/FRET/MOA assay; class symbols; read-out: KRAS Q61H FRET data IC50
# Method: The purpose of this biochemical assay is to measure the ability of test compounds to facilitate ternary complex formation between a nucleotide-loaded Ras isoform and cyclophilin A; the resulting ternary complex disrupts binding to a BRAF^RBD construct, inhibiting Ras signaling through a RAF effector.
# (§1) […]. Compound is present in plate wells as a 10-point 3-fold dilution series starting at a final concentration of 30 μM. After incubation at 25° C. for 3 hours, a mixture of Anti-His Eu-W1024 and anti-GST allophycocyanin is then added to assay sample wells at final concentrations of 10 nM and 50 nM, respectively, and the reaction incubated for an additional 1.5 hours. […] Compounds that facilitate disruption of a Ras:RAF complex are identified as those eliciting a decrease in the TR-FRET ratio relative to DMSO control wells.
# Note—The following protocol describes a procedure for monitoring disruption of K-Ras G12C (GMP-PNP) binding to BRAF^RBD by a compound of the invention. This protocol may also be executed substituting other Ras proteins or nucleotides.
# The purpose of this biochemical assay was to measure the ability of test compounds to facilitate ternary complex formation between a nucleotide-loaded K-Ras isoform and Cyclophilin A; the resulting ternary complex disrupts binding to a BRAF^RBD construct, inhibiting K-Ras signaling through a RAF effector. Data is reported as IC50 values.
# as §1, with “Compound was” for “Compound is”, “allophycocyanin was” for “allophycocyanin is”, “a K-Ras:RAF” for “a Ras:RAF”, “complex were” for “complex are”
# [2] = tested on: NCI-H358 cells (K-Ras G12C); assay: Potency assay: pERK in NCI-H358 cells; type: cell-based, human; conditions: H358 KRAS G12C; read-out: pERK EC50
# In short: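 4 h cpd, 37 °C; 10-pt 3-fold series, 10 mM DMSO top stock, duplicates. Readout pERK: AlphaLISA SureFire Ultra or In-Cell Western (IR-800CW secondary, DRAQ5 DNA stain). IC50, 4-PL fit vs log conc.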
# [3] = biological target: KRAS G12S (Homo sapiens (Human), UniProt P01116+P62937, G12S); assay: Ras-Raf (BRAF RBD) disruption / FRET / MOA assay, KRAS G12S; type: biochemical; conditions: Ras-Raf disruption/FRET/MOA assay; class symbols; read-out: KRAS G12S FRET data IC50
# In short: (§2)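 Compound-driven ternary complex of nucleotide-loaded Ras with cyclophilin A, disrupting BRAF RBD binding. 10-point 3-fold dilution from 30 μM final, 3 h at 25° C, then anti-His Eu-W1024 (10 nM) and anti-GST allophycocyanin (50 nM) for 1.5 h. IC50 from TR-FRET ratio decrease versus DMSO.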
# [4] = biological target: KRAS G12D (Homo sapiens (Human), UniProt P01116+P62937, G12D); assay: Ras-Raf (BRAF RBD) disruption / FRET / MOA assay, KRAS G12D; type: biochemical; conditions: Ras-Raf disruption/FRET/MOA assay; class symbols; read-out: KRAS G12D FRET data IC50
# In short: as §2
# KRAS G12S, sequence (P01116-2 other isoform, or with tags, fused parts or gaps G12S): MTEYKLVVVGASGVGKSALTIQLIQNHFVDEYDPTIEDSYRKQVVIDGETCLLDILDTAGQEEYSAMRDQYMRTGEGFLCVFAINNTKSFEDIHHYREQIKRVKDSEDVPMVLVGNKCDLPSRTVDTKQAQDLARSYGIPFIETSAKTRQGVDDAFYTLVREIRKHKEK
# KRAS G12S, sequence (P62937 whole entry): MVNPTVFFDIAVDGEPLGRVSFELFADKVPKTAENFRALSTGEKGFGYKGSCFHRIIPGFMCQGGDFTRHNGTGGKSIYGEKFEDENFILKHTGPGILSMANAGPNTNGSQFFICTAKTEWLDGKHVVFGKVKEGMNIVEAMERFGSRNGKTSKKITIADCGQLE
# KRAS Q61H, sequence (P01116-2 other isoform, or with tags, fused parts or gaps Q61H): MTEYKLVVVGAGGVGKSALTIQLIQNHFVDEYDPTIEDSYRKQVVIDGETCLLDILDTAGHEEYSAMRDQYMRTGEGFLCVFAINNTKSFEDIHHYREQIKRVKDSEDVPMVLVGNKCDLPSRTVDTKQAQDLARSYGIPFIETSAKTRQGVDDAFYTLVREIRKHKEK
# KRAS Q61H, sequence (P62937 whole entry, canonical isoform): as the sequence (P62937 whole entry) above
# KRAS G12D, sequence (P01116-2 other isoform, or with tags, fused parts or gaps G12D): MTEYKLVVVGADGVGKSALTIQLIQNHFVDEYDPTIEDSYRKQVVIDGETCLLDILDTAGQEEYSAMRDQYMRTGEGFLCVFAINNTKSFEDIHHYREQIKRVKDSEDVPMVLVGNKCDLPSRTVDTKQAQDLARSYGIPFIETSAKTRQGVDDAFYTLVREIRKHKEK
# KRAS G12D, sequence (P62937 whole entry): as the sequence (P62937 whole entry) above
compound,measurement,setting,value
"C=CC(=O)Nc1ncc(C(=O)N(C)[C@H](C(=O)N[C@H]2Cc3cccc(c3)-c3ccc4c(c3)c(c(-c3cccnc3[C@H](C)OC)n4CC)CC(C)(C)COC(=O)[C@@H]3CCCN(N3)C2=O)C(C)C)n1C (atropisomer, axis not shown) [Example A475]",IC50,[1],0.1 to 1 µM
same,EC50,[2],< 5 µM
same,IC50,[3],1 to 10 µM
same,IC50,[4],> 10 µM
C=CC(=O)N1CC[C@H](C(=O)N(C)[C@H](C(=O)N[C@H]2Cc3cc(O)cc(c3)-c3ccc4c(c3)c(c(-c3c(F)cccc3CCOC)n4CC)CC(C)(C)COC(=O)[C@@H]3CCCN(N3)C2=O)C(C)C)C1 [Example A025],IC50,[1],1 to 10 µM
same,IC50,[3],1 to 10 µM
same,IC50,[4],> 10 µM
C=CC(=O)N1CC[C@H](C(=O)N(C)[C@H](C(=O)N[C@H]2Cc3cc(O)cc(c3)-c3ccc4c(c3)c(c(-c3ccccc3N3CCOCC3)n4CC)CC(C)(C)COC(=O)[C@@H]3CCCN(N3)C2=O)C(C)C)C1 [Example A026],IC50,[1],1 to 10 µM
same,IC50,[3],> 10 µM
same,IC50,[4],> 10 µM
C=CC(=O)N1CC[C@H](C(=O)N(C)[C@H](C(=O)N[C@H]2Cc3cc(O)cc(c3)-c3ccc4c(c3)c(c(-c3cccnc3)n4CC)CC(C)(C)COC(=O)[C@@H]3CCCN(N3)C2=O)C(C)C)C1 [Example A045],IC50,[1],0.1 to 1 µM
same,IC50,[3],1 to 10 µM
same,IC50,[4],> 10 µM
C=CC(=O)N1CC[C@H](C(=O)N(C)[C@H](C(=O)N[C@H]2Cc3cc(O)cc(c3)-c3ccc4c(c3)c(c(-c3ccc5c(c3)OCCN5C)n4CC)CC(C)(C)COC(=O)[C@@H]3CCCN(N3)C2=O)C(C)C)C1 [Example A050],IC50,[1],1 to 10 µM
same,IC50,[3],1 to 10 µM
same,IC50,[4],> 10 µM
C=CC(=O)N1CC[C@H](C(=O)N(C)[C@H](C(=O)N[C@H]2Cc3cc(O)cc(c3)-c3cc(F)c4c(c3)c(c(-c3ccccc3CCOC)n4CC)CC(C)(C)COC(=O)[C@@H]3CCCN(N3)C2=O)C(C)C)C1 [Example A053],IC50,[1],1 to 10 µM
same,IC50,[4],> 10 µM
C=CC(=O)N1CC[C@H](C(=O)N(C)[C@H](C(=O)N[C@H]2Cc3cc(O)cc(c3)-c3ccc4c(c3)c(c(-c3cccnc3N3CC(OC)C3)n4CC)CC(C)(C)COC(=O)[C@@H]3CCCN(N3)C2=O)C(C)C)C1 [Example A060],IC50,[1],1 to 10 µM
same,IC50,[3],1 to 10 µM
same,IC50,[4],> 10 µM
C=CC(=O)N1CC[C@H](C(=O)N(C)[C@H](C(=O)N[C@H]2Cc3cc(O)cc(c3)-c3ccc4c(c3)c(c(-c3cncnc3)n4CC)CC(C)(C)COC(=O)[C@@H]3CCCN(N3)C2=O)C(C)C)C1 [Example A061],IC50,[1],1 to 10 µM
same,IC50,[3],1 to 10 µM
same,IC50,[4],> 10 µM
C=CC(=O)N1CC[C@H](C(=O)N(C)[C@H](C(=O)N[C@H]2Cc3cc(O)cc(c3)-c3ccc4c(c3)c(c(C3=C(COC)CCCC3)n4CC)CC(C)(C)COC(=O)[C@@H]3CCCN(N3)C2=O)C(C)C)C1 [Example A064],IC50,[1],0.1 to 1 µM
same,IC50,[3],0.1 to 1 µM
same,IC50,[4],> 10 µM
C=CC(=O)N1CC[C@H](C(=O)N(C)[C@H](C(=O)N[C@H]2Cc3cc(O)cc(c3)-c3ccc4c(c3)c(c(-c3cncc(COC)c3)n4CC)CC(C)(C)COC(=O)[C@@H]3CCCN(N3)C2=O)C(C)C)C1 [Example A083],IC50,[1],0.1 to 1 µM
same,IC50,[3],0.1 to 1 µM
same,IC50,[4],> 10 µM

# From patent publication US11566007B2, “Ras inhibitors” (Revolution Medicines, Inc., priority 2019, dated 2023)
